Reference: US7173063B1, “Topoisomerase poisons for the treatment of proliferative disorders” (Fred Hutchinson Cancer Research Center, priority 2000, dated 2007)

Assays:
[1] = test system: yeast lacking Ku70 (encoded by the HDF1 gene); test: Yeast toxicity in NHEJ-deficient strain lacking Ku70 (hdf1); format: cell-based
Method: Yeast toxicity assays were performed essentially as follows: Exponentially growing cultures of the appropriate strains were diluted in synthetic complete media to a concentration of 7.4×10^4 cells/mL, and aliquots (135 μL) were transferred to each well of clear flat-bottomed 96 well plates. Compounds were added in duplicate or triplicate as 15 μL of the appropriate dilution in 5% DMSO. A 15 μL portion of 5% DMSO was added to control wells. Assay plates were incubated at 30° C. for approximately seven generations growth in solvent control wells (as monitored by OD660, typically 21–24 hours), then the OD660 of the cultures was measured in a microplate reader (Bio-Tek). Cell growth (OD660) in treated wells was plotted as a percentage of the growth in at least four averaged solvent control wells for the same strain. Camptothecin sodium salt (camptothecin Na) was the agent used in all yeast assays as standard.
The sensitivity of yeast lacking Ku70 (encoded by the HDF1 gene) to camptothecin Na, compounds Ia and IIa, has now been examined. […] Thus the NHEJ pathway is not important for the repair of lesions induced by these compounds in yeast.

Rat1a fibroblasts = test: Effect of exposure time on toxicity in Rat1a fibroblasts; format: cell-based, rat; details: for toxicity with a two hour exposure: additional experiments; for toxicity of four hour versus six hour exposure: total incubation 96 hours
Method: Cells were plated at a density of 500 cells per well in opaque 96 well plates (Packard) in a volume of 135 μL per well of the appropriate media. The plates were incubated overnight to allow cell adherence. Seven two-fold dilutions of the test compounds were added in a volume of 15 μL per well in triplicate, and 15 μL of media containing an appropriate concentration of DMSO was added to control wells in triplicate. Plates were incubated at 37° C. for 96 hours. The media was then replaced with 100 μL per well of the appropriate media containing 2 μCi/mL of (methyl-^3H) thymidine (Amersham Pharmacia Biotech), then plates were incubated for a further 24 hours at 37° C. Cells were washed three times with PBS, then 100 μL per well of scintillant was added (Microscint 20, Packard), and sealed plates were counted in a microplate reader (Packard Topcount). For suspension chicken cells, (methyl-^3H) thymidine was added directly to the drug-containing media at a concentration of 20 μCi/mL (comprising one tenth of the media volume) and incubated overnight. The suspension cells were transferred to a UniFilter GF/C plate (Packard) and washed with PBS in a plate washer (Packard). After drying, 25 μL per well of scintillant (Microscint 20, Packard) was added, and sealed plates were counted. Toxicity is expressed as a percentage of the control counts. For experiments involving shorter exposures to compounds, cells were grown in the presence of compound for the appropriate time, then the media was replaced with fresh drug-free media, and incubation continued for the remainder of 96 hours, followed by the normal tritiated thymidine uptake and washing protocol.

SMILES	sensitivity of NHEJ-deficient (hdf1) mutant compared with wild-type [1]	effectiveness of 96 hour exposure relative to four hour exposure (Rat1a fibroblasts)	toxicity with a two hour exposure (Rat1a fibroblasts)	toxicity of four hour versus six hour exposure (Rat1a fibroblasts)
O=c1c(Cl)c(Cl)cnn1CCCl [compound IIa]	indistinguishable from that of wild-type	three- to five-fold	nearly full toxicity	equally effective
O=C(CCl)Nc1ccc(C(=O)N/N=C/c2ccc(Cl)cc2)cc1 [compound Ia]	indistinguishable from that of wild-type	three- to five-fold	nearly full toxicity	equally effective
